The structures appear in SMILES notation. “And” between values parts separate entries of the source, which are not always exact repeats. Equal entries are not always repeated. “Also recorded” adds a separate entry of the source. Where two headings read alike, the source gives them in different places.

Data set [1] concerns B16F10 melanoma cells. The experiment in a line: Melanin content assay in α-MSH and IBMX co-stimulated B16F10 cells. The format is cell-based, murine. Particulars: for melanin contents: 5, 10, 20 μM, α-MSH and IBMX, 48 h.
Data set [2] has as its system cellular tyrosinase in B16F10 melanoma cells. The class given is cell-based, murine. The settings on record: for cellular tyrosinase activity: 5, 10, 20 μM, α-MSH 1 μM and IBMX 200 µM, 48 h.
Data set [3] has as its system mushroom tyrosinase. The experiment in a line: Kinetic studies of tyrosinase inhibition. The format is biochemical. The settings on record: for mode of tyrosinase inhibition: Lineweaver-Burk plots, L-tyrosine as substrate.
Data set [4] deals with B16F10 melanoma cells. The experiment in a line: Cell viability assay: EZ-cytox assay. Particulars: up to 20 µM, 24 h. The class given is cell-based, murine.
Data set [5] deals with mushroom tyrosinase (Agaricus bisporus, UniProt C7FF04). The data set can be described thus: biochemical. The format is biochemical. The settings on record: for Tyrosinase inhibition (%): 25 μM, L-tyrosine as substrate, NI: no inhibition, means ± SEMs, 25 µM; for inhibitory potency relative to kojic acid: from IC50 values.
mushroom tyrosinase (Agaricus bisporus, UniProt C7FF04), sequence (C7FF04 1-392): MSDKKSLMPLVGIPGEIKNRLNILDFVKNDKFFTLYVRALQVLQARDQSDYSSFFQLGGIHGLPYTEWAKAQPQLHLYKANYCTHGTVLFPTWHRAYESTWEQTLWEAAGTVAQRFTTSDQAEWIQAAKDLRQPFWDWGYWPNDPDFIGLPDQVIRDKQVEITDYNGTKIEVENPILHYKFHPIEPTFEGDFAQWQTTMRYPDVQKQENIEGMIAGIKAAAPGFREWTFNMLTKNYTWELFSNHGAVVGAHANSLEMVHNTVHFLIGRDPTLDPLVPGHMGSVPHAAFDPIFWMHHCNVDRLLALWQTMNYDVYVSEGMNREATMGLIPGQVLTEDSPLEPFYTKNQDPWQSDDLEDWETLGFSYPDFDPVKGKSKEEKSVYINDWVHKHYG
The conditions of data set [6]: after 5 days at 20 °C; cited from earlier work.

For orientation: Ki means the equilibrium dissociation constant of an inhibitor or competing ligand from its target. The low end stands for higher affinity, the high end for lower affinity. Usually Vmax stands for the top rate of the reaction or transport when substrate is in excess. By IC50 is commonly meant the concentration that inhibits the measured activity by half. `O=C1/C(=C/c2ccccc2O)OC(=S)N1c1ccccc1` [Compound 1j, (Z)-5-(2-Hydroxybenzylidene)-3-phenyl-2-thioxooxazolidin-4-one]: the melanin contents result in the data set on B16F10 melanoma cells [1] is “significantly and potently decreased melanin contents”. Moreover, the “inhibition of melanin production compared with kojic acid at 20 µM” value in the data set on B16F10 melanoma cells [1] (compound at 5 μM) is recorded as “inhibited melanin production more than kojic acid”. For the same molecule, the cellular tyrosinase activity result in data set [2] is “significantly and concentration-dependently decreased cellular tyrosinase activity”. The “cellular tyrosinase inhibition compared with kojic acid at 20 μM” value in data set [2] (compound at 5 μM) is listed as “inhibited cellular tyrosinase more than kojic acid”; in data set [2] (compound at 10 μM), “more potent than kojic acid”. In addition, the “mode of tyrosinase inhibition” value in the data set on mushroom tyrosinase [3] is “competitively inhibited; also recorded: competitive inhibitors”. In addition, the Ki on mushroom tyrosinase [3] (inhibitor conc. 5.0 μM) turned out to be 5.85 µM; on mushroom tyrosinase [3] (inhibitor conc. 10.0 μM), 4.51 µM; on mushroom tyrosinase [3] (inhibitor conc. 20.0 μM) it was 3.22 µM. Further, the Vmax with mushroom tyrosinase [3] (inhibitor conc. 5.0 μM), with mushroom tyrosinase [3] (inhibitor conc. 10.0 μM), in the data set on mushroom tyrosinase [3] (inhibitor conc. 20.0 μM) and in the data set with mushroom tyrosinase [3] (regardless of concentration) was 0.027 mM/min in each case. Moreover, in the data set with B16F10 melanoma cells [4], the “cytotoxic effect (cell viability)” value was “did not have a significant cytotoxic effect”. Moreover, the IC50 against mushroom tyrosinase [5] came to 11.2 ± 0.54 µM. Also, the “Tyrosinase inhibition (%)” value at mushroom tyrosinase [5] is on record as 71.12 ± 0.71%. The “inhibitory potency relative to kojic acid” value at mushroom tyrosinase [5] is 2 fold and 2.1 fold.

Consider `O=C1/C(=C/c2ccc(O)cc2O)OC(=S)N1c1ccccc1` [Compound 1c, (Z)-5-(2,4-Dihydroxybenzylidene)-3-phenyl-2-thioxooxazolidin-4-one], for which the melanin contents entry in the data set with B16F10 melanoma cells [1] was “significantly and potently decreased melanin contents”. Besides, in the data set with B16F10 melanoma cells [1] (compound at 10 μM), the “inhibition of melanin production compared with kojic acid at 20 µM” value is “inhibited melanin production more than kojic acid”. Moreover, the cellular tyrosinase activity entry in data set [2] is “significantly and concentration-dependently decreased cellular tyrosinase activity”. Besides, the “cellular tyrosinase inhibition compared with kojic acid at 20 μM” value in data set [2] (compound at 10 μM) is on record as “more potent than kojic acid; also recorded: inhibited cellular tyrosinase more than kojic acid”. For the same molecule, the “mode of tyrosinase inhibition” value with mushroom tyrosinase [3] is listed as “competitively inhibited; also recorded: competitive inhibitors”. In addition, on mushroom tyrosinase [3] (inhibitor conc. 2.5 μM), the Ki came out at 3.02 µM and the Vmax came to 0.04 mM/min. In addition, on mushroom tyrosinase [3] (inhibitor conc. 5.0 μM), the affinity, expressed as Ki, was 2.51 µM and the Vmax was determined as 0.04 mM/min. For the same molecule, at mushroom tyrosinase [3] (inhibitor conc. 10.0 μM), affinity was put at a Ki of 2.19 µM and the Vmax is 0.04 mM/min. For the same molecule, the Vmax with mushroom tyrosinase [3] (regardless of concentration) was 0.04 mM/min. The “cytotoxic effect (cell viability)” value in the data set on B16F10 melanoma cells [4] is given as “did not have a significant cytotoxic effect”. Besides, on mushroom tyrosinase [5], inhibition was half-maximal at 4.7 ± 0.4 µM (IC50); the “Tyrosinase inhibition (%)” value is 78.05 ± 4.03%; the “inhibitory potency relative to kojic acid” value is 5 fold and 4.9 fold.

Consider `OC[C@H]1O[C@@H](Oc2ccc(O)cc2)[C@H](O)[C@@H](O)[C@@H]1O` [Arbutin], for which the decomposition in data set [6] is listed as 10%.

In turn, `O=C1/C(=C/c2ccc(O)c(O)c2)OC(=S)N1c1ccccc1` [Compound 1b, (Z)-5-(3,4-Dihydroxybenzylidene)-3-phenyl-2-thioxooxazolidin-4-one] came in with an IC50 at mushroom tyrosinase [5] of 53.38 ± 0.39 µM.

On to `O=C1/C(=C/c2ccc(O)c(Br)c2)OC(=S)N1c1ccccc1` [Compound 1n, (Z)-5-(3-Bromo-4-hydroxybenzylidene)-3-phenyl-2-thioxooxazolidin-4-one], for which the “Tyrosinase inhibition (%)” value on mushroom tyrosinase [5] is on record as 24.96 ± 4.72%.

The values are drawn from article PMC7753086 (Computational and Structural Biotechnology Journal, 2020).
